Results: ChEMBL document CHEMBL1201862, “PubChem BioAssay data set” (2004)
The source made the active and inactive calls.

What was measured:
Jurkat = experiment: SAR Analysis of small molecule inhibitors of T-cell specific antigen receptor-induced NF-kB activation in a Jurkat cell line using a luminescence assay - Set 2. [Related pubchem assays (depositor defined):AID435003, AID435012, AID465]; assay type: functional, cell-based; conditions: Homo sapiens
[1] = C. albicans growth with fluconazole, confirmation, fluorescence, retest (AID 2467); assay type: functional, cell-based
[2] = NIH-3T3 fibroblast cytotoxicity, dose response, cytotoxicity control, cell-based, fluorescence, Alamar Blue, secondary assay (AID 2327); assay type: functional;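 note: NIH-3T3 mouse fibroblasts cultured with fluconazole at 8 µg/mL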
[3] = HepG2 cell cytotoxicity, dose response, cytotoxicity control for non-replicating M. tuberculosis project (AID 489018); assay type: functional; conditions: Mycobacterium tuberculosis
[4] = THP-1 cell cytotoxicity, dose response, cytotoxicity control for non-replicating M. tuberculosis project (AID 489025); assay type: functional
HEK293 [5] = experiment: cytotoxicity in HEK293T NF-kB-Luc cells, SAR follow-up, cytotoxicity control for NF-kB activator project, cell-based, resazurin fluorescence (AID 493251); assay type: functional; conditions: Homo sapiens
[6] = Vero E6 cell cytotoxicity, dose response, cytotoxicity control for non-replicating M. tuberculosis project, secondary assay (AID 492998); assay type: functional, VeroE6; conditions: Vero C1008
cells = assay type: functional
HEK293 [7] = experiment: SAR Analysis of small molecule inhibitors of T-cell specific antigen receptor-induced NF-kB activation in a HEK-293T cell line using a luminescence assay - Set 2. [Related pubchem assays (depositor defined):AID435003, AID435012, AID489026]; assay type: functional, cell-based; conditions: Homo sapiens
[8] = inhibitors of Trypanosoma cruzi host-cell infection, confirmation, beta-gal luminescence, NIH3T3 host cells (AID 2630); assay type: functional, cell-based; conditions: Mus musculus
[9] = cytotoxicity toward NIH3T3 fibroblasts, dose response, counter-screen, cell-based, ATP luminescence, mouse fibroblasts (AID 2010); assay type: functional;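 note: cells exposed to compound for about 90 hours before reading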
[10] = inhibitors of intracellular T. cruzi replication, confirmation, NIH3T3 host cells, beta-gal luminescence (AID 2044); assay type: functional, cell-based;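 note: intracellular parasites grown in NIH/3T3 mouse fibroblasts as host cells; luminescent beta-galactosidase reporter signal from transgenic T. cruzi replicating inside host cells; inhibitors lower the luminescence signal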
[11] = Luminescence Cell-Based/Microorganism Confirmation at Dose of Inhibitors of Trypanosoma cruzi Infection. [Related pubchem assays: 1885, 1968 ]; assay type: functional
Cytochrome P450 1A2 = biological target: T1, Cytochrome P450 1A2 (Homo sapiens, UniProt P05177);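 note: PubChem cytochrome P450 panel assay, CYP1A2 panel member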
T1 sequence (P05177 whole entry): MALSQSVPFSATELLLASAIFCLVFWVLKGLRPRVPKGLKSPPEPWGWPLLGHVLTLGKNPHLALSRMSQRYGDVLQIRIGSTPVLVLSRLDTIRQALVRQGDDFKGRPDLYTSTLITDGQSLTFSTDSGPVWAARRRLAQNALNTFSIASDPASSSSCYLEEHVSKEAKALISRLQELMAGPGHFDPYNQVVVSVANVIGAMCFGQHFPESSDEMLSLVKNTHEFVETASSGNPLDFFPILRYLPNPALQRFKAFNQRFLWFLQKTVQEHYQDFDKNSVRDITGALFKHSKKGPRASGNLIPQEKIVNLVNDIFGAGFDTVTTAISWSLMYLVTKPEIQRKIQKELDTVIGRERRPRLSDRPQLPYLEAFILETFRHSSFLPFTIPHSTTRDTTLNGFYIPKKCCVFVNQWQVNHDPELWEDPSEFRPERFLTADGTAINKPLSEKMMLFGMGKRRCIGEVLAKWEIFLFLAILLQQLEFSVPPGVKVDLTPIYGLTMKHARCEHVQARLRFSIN

Cytochrome P450 3A4 = Cytochrome P450 3A4 (Homo sapiens, UniProt P08684);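 note: CYP3A4 tested as one member of a cytochrome P450 panel screen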
Cytochrome P450 3A4, sequence (P08684 whole entry): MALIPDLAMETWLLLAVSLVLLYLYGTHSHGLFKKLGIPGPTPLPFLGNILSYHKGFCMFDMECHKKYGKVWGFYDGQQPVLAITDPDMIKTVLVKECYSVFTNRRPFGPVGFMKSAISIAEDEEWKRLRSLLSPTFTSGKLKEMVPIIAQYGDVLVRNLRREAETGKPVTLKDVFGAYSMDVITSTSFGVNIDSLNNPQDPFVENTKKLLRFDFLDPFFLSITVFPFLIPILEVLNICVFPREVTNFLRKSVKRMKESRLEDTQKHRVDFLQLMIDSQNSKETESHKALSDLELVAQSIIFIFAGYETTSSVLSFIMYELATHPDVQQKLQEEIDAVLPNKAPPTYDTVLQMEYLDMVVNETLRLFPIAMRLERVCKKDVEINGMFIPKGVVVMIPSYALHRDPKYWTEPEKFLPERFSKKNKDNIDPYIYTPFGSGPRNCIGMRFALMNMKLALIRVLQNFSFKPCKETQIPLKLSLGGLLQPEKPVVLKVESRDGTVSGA

[12] = Luminescence Cell-Based Dose Retest to Confirm Inhibitors of Cancer Stem Cells. [Related pubchem assays (depositor defined):AID2717, AID2721]; assay type: functional, Homo sapiens; conditions: Homo sapiens
[13] = cytotoxicity in HMLE control line with eGFP shRNA, dose response, counter-screen for HMLE_sh_ECad selective toxicity project, cell-based, HMLE_sh_eGFP, luminescence (AID 463074); assay type: functional, Homo sapiens;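 note: HMLE human mammary epithelial cells expressing control shRNA against eGFP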
[14] = tested on: Streptococcus sp. 'group A'; experiment: growth inhibition of control SK(-) GAS strain, dose response, counter-screen for streptokinase expression inhibitor project, luminescence, kanamycin, BacTiterGlo, confirmation (AID 1900); assay type: functional, organism-based; conditions: read-out: EC50
Streptococcus = experiment: Group A Streptococcus viability loss, dose response, counter-screen for streptokinase expression inhibitor project, luminescence, BacTiterGlo (AID 1915); assay type: functional, organism-based;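 note: potency for reduction of bacterial viability or growth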
Beta-arrestin-1 = Beta-arrestin-1 (Homo sapiens, UniProt P49407); experiment: inhibitors of arrestin peptide binding to AP2, dose response, biochemical, cherry pick 1, beta2-adaptin appendage, flow cytometry (AID 588783); assay type: functional
Beta-arrestin-1, sequence (P49407 whole entry): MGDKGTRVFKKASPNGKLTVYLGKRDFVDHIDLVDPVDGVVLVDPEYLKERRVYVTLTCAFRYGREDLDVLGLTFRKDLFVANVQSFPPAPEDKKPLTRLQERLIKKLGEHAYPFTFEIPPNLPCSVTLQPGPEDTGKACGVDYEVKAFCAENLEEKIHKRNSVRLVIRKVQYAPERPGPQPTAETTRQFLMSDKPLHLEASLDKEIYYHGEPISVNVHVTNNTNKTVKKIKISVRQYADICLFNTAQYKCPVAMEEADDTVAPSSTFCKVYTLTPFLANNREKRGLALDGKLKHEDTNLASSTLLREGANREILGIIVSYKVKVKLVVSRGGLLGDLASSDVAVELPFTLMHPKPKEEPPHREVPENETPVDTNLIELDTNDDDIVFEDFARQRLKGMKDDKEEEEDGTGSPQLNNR

Hexokinase HKDC1 = biological target: T2, Hexokinase HKDC1 (Homo sapiens, UniProt Q2TB90); experiment: HKDC1 hexokinase activators, dose response, biochemical, W721R variant (AID 504730); assay type: functional
T2 sequence (Q2TB90 whole entry): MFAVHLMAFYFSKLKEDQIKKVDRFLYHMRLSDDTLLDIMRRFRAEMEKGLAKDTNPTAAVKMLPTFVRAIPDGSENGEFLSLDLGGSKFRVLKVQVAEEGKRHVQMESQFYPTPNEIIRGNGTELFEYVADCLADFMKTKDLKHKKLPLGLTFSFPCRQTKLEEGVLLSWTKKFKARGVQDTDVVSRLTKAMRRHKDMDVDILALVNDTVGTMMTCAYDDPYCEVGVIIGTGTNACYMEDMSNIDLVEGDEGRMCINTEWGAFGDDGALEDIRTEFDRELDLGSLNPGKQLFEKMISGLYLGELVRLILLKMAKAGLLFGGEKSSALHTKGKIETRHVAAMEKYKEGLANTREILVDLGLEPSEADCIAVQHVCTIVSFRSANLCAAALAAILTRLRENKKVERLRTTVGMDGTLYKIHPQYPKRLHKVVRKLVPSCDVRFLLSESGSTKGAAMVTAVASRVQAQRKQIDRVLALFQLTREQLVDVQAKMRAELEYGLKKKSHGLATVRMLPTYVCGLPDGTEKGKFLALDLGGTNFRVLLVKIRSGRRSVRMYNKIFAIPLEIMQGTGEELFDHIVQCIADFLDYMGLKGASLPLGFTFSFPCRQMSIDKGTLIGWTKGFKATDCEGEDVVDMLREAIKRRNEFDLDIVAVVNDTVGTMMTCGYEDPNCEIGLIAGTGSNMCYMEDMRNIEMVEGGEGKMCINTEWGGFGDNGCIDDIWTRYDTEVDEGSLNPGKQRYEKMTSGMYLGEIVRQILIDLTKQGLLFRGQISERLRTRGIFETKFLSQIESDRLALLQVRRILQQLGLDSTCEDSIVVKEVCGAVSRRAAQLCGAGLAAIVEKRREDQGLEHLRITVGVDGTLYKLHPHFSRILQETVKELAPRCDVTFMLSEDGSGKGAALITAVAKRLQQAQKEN

[15] = biological target: Phosphoethanolamine/phosphocholine phosphatase (Homo sapiens, UniProt Q8TCT1); experiment: SAR assay for compounds that inhibit PHOSPHO1. [Related pubchem assays (depositor defined):AID1545, AID1565, AID1574]
Phosphoethanolamine/phosphocholine phosphatase, sequence (Q8TCT1 whole entry): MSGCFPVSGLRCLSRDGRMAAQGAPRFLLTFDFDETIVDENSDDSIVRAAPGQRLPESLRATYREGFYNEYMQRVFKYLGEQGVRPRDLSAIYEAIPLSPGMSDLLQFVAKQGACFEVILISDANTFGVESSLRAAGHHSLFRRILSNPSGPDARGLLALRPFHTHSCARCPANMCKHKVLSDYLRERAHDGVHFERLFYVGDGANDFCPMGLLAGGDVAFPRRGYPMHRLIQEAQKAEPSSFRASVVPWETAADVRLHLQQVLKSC

[16] = biological target: Glucose-6-phosphate 1-dehydrogenase (Homo sapiens, UniProt P11413); experiment: human G6PD enzyme inhibitors, dose response, selectivity assay for P. falciparum G6PD inhibitor project, biochemical, fluorescence (AID 504792); assay type: functional
Glucose-6-phosphate 1-dehydrogenase, sequence (P11413 whole entry, the tested form may be a part): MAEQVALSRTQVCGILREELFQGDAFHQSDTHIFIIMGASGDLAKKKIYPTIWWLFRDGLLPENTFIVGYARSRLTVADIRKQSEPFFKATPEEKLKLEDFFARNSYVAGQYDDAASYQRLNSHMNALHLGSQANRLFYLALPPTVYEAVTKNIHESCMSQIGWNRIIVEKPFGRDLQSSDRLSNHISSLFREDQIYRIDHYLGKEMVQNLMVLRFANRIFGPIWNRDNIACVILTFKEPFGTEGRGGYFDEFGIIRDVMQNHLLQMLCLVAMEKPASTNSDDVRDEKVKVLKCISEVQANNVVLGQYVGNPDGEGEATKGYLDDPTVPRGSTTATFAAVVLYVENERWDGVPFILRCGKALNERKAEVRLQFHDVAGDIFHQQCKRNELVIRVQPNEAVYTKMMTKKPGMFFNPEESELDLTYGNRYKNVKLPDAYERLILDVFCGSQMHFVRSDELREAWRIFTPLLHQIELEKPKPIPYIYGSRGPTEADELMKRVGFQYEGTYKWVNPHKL

Perilipin-1/ABHD5 = Perilipin-1/ABHD5 (Homo sapiens, UniProt O60240+Q8WTS1); experiment: Luminescence-based biochemical high throughput dose response assay for inhibitors of the interaction of the lipase co-activator protein, abhydrolase domain containing 5 (ABHD5) with perilipin-1 (PLIN1) (2K validation set). [Related pubchem assays (depositor defined):AID493027, AID493057]
Perilipin-1/ABHD5, sequence (Q8WTS1 whole entry, the tested form may be a part): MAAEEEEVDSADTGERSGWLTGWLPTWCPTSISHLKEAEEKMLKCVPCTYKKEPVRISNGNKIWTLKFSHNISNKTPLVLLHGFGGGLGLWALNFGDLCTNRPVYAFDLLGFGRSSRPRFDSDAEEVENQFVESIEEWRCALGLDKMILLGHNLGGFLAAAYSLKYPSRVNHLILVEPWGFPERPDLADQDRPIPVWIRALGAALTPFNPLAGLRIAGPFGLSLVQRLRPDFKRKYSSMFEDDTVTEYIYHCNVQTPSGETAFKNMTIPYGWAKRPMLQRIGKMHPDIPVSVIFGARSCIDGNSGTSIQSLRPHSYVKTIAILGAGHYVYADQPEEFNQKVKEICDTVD
Perilipin-1/ABHD5, sequence (O60240 whole entry, the tested form may be a part): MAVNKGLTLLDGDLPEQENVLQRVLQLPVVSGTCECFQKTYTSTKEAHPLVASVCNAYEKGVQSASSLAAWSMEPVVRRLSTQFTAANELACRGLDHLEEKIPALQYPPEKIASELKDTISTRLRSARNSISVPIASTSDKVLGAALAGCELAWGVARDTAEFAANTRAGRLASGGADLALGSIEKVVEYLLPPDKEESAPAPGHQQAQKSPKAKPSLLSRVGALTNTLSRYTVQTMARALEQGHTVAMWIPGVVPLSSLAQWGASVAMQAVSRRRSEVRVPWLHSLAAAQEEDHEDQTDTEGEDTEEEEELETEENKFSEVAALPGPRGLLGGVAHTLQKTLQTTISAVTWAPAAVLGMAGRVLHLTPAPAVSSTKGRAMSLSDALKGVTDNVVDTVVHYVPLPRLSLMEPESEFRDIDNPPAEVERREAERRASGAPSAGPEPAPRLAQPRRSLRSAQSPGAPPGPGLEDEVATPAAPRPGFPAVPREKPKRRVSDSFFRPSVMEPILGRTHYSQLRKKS

[17] = biological target: 1-acylglycerol-3-phosphate O-acyltransferase ABHD5/Perilipin-5 (Homo sapiens, UniProt Q00G26+Q8WTS1); experiment: Luminescence-based biochemical high throughput dose response assay for inhibitors of the interaction of the lipase co-activator protein, abhydrolase domain containing 5 (ABHD5) with perilipin-5 (MLDP; PLIN5) (2K validation set). [Related pubchem assays (depositor defined):AID493035, AID493241]
Hexokinase-1 = biological target: T3, Hexokinase-1 (Homo sapiens, UniProt P19367); experiment: hexokinase 1 activators, dose response, selectivity assay for HKDC1 activator project, biochemical (AID 504762); assay type: functional
T3 sequence (P19367 whole entry): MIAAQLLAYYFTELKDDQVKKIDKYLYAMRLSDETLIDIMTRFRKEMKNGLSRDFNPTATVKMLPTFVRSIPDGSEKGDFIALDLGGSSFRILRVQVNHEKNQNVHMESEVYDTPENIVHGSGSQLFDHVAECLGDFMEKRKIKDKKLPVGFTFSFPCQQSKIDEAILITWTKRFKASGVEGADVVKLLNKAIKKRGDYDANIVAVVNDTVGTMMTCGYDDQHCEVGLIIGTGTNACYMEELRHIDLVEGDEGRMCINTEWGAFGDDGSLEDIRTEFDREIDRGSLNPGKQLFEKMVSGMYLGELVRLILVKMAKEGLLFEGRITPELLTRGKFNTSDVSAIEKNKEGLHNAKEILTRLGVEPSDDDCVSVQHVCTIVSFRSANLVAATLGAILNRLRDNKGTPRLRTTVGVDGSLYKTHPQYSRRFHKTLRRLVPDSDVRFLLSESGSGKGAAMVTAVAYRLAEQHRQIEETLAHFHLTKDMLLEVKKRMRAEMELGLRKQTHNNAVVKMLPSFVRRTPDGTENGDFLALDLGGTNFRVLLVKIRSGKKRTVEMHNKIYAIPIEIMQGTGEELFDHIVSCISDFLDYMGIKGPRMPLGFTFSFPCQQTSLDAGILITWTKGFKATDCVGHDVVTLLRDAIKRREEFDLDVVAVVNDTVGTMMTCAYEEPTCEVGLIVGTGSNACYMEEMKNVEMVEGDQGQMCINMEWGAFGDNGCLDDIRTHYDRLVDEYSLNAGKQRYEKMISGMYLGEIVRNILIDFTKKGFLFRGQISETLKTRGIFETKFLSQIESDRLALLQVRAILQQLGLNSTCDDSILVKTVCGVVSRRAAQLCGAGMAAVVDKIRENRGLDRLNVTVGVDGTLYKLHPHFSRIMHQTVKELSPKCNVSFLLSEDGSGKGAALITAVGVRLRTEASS

Large T antigen = Large T antigen (Simian virus 40, UniProt P03070); assay type: functional, Betapolyomavirus macacae;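 note: Confirmatory-stage PubChem screen for compounds that inhibit SV40 T antigen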
Large T antigen, sequence (P03070 whole entry): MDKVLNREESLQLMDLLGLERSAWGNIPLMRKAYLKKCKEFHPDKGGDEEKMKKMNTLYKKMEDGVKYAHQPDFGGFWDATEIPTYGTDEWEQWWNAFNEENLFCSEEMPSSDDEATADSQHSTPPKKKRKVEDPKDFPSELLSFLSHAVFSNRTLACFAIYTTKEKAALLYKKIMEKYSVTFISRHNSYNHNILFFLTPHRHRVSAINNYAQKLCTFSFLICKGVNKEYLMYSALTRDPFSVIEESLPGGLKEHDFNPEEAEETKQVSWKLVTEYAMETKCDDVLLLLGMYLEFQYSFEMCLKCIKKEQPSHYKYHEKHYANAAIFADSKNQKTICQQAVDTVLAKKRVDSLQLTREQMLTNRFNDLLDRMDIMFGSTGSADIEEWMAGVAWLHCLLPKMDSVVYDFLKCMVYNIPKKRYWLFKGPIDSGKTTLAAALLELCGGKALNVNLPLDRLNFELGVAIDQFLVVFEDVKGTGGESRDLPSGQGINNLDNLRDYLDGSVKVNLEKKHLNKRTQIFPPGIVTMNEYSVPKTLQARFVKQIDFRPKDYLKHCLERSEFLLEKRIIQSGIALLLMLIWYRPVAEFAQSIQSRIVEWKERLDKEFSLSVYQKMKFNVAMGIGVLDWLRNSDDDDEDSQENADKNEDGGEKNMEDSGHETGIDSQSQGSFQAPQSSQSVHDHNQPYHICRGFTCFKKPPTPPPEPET

[18] = biological target: Eukaryotic translation initiation factor 4E (Mus musculus, UniProt P63073); experiment: eIF4E–eIF4G protein interaction inhibitors, dose response, biochemical, TR-FRET (AID 855); assay type: functional;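 note: potency for disrupting eIF4E binding to eIF4GI seen as loss of FRET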
Eukaryotic translation initiation factor 4E, sequence (P63073 whole entry): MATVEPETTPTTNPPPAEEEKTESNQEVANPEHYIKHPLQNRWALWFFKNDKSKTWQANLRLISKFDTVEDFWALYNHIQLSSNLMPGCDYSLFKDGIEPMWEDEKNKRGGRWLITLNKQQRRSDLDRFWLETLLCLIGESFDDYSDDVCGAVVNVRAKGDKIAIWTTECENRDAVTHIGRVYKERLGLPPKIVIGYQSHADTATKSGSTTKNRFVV

[19] = biological target: Voltage-gated inwardly rectifying potassium channel KCNH2 (Homo sapiens, UniProt Q12809); conditions: Potency;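 note: confirmatory quantitative high-throughput screen measuring inhibition of hERG channel activity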
Voltage-gated inwardly rectifying potassium channel KCNH2, sequence (Q12809 whole entry): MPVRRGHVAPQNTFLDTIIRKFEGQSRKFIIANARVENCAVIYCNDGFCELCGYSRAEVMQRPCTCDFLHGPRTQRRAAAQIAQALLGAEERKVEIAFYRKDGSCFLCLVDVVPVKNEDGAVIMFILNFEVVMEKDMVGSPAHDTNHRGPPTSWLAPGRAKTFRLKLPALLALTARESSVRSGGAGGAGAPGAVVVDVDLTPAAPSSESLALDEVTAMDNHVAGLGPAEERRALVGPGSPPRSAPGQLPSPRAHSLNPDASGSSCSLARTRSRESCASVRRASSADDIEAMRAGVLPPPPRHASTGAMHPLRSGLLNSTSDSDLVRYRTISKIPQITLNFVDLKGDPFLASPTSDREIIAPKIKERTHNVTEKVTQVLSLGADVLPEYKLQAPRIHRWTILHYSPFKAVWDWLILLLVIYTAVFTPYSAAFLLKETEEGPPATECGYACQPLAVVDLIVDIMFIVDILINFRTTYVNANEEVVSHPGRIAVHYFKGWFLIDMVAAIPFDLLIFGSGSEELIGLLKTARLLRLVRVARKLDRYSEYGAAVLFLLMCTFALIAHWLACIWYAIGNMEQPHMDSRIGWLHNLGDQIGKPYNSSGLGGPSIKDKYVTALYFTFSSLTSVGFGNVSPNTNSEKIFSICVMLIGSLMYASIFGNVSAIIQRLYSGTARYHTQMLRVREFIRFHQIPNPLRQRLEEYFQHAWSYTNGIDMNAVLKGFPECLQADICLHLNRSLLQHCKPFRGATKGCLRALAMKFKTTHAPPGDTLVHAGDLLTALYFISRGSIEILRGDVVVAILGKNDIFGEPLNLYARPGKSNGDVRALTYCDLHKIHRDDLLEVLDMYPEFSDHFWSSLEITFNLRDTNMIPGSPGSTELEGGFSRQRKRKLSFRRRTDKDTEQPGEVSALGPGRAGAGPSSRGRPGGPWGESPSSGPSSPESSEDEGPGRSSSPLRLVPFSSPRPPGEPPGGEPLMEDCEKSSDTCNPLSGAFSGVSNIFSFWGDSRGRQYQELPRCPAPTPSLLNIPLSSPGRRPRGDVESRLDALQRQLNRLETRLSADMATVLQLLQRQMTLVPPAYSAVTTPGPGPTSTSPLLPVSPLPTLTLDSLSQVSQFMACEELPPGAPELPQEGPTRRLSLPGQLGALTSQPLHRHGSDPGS

Cc1ccc(NC(=O)c2ccc([N+](=O)[O-])o2)cc1C
IC50 (Jurkat): 6.86 µM (active)
EC50 [1]: 1.87 µM (active)
EC50 [2]: 14.2 µM (active)
CC50 [3]: 15.1 µM (active)
CC50 [4]: 16.2 µM (active)
IC50 (HEK293 [5]): 47.3 µM (inactive)
CC50 [6]: 6.87 µM (active)
IC50 (cells): 0.7 µM (active)
IC50 (HEK293 [7]): 38.6 µM (inactive)

CC1CCCN(C(=O)Cc2cn(Cc3cccc(Cl)c3)c3ccccc23)C1 (centres undefined)
EC50 [8]: 2.81 µM (active)
EC50 [9]: > 60 µM (not active)
EC50 [10]: 1.79 µM (active)
EC50 [11]: 2.81 µM (active)

O=C(c1ccc2c(c1)N(Cc1ccc(F)cc1)C(=O)CS2)N1CCOCC1
AC50 (Cytochrome P450 1A2): inconclusive
AC50 (Cytochrome P450 3A4): 25.1 µM (inconclusive)

CCC(C(=O)Nc1cc(OC)c(NC(=O)c2ccccc2)cc1OC)c1ccccc1 (centres undefined)
AC50 [12]: 4.24 µM (active)
AC50 [13]: 51.9 µM (active)

O=c1c2ccccc2[se]n1-c1ccccc1 [EBSELEN]
EC50 [14]: 1.1 µM (active)
EC50 (Streptococcus): 0.975 µM (active)
IC50 (Beta-arrestin-1): 1.52 µM (active)
EC50 (Hexokinase HKDC1): 38.8 µM (inactive)
IC50 [15]: 0.111 µM (active)
IC50 [16]: 13.2 µM (active)
IC50 (Perilipin-1/ABHD5): 3.41 µM (active)
IC50 [17]: 1.1 µM (active)
EC50 (Hexokinase-1): 41.9 µM (inactive)
IC50 (Large T antigen): 13.9 µM (active)
IC50 [18]: 1.15 µM (active)
AC50 [19]: 35.5 µM (inconclusive)
